This passage reports IC50, inhibition and Km results from PMC4708625 (Free Radical Biology & Medicine, 2016).

For series [1], the target named is T1, Carboxylesterase 1 isoform b (Ces1b) (Homo sapiens, UniProt P23141).
T1 construct: gene CES1
T1 sequence (P23141 18-567): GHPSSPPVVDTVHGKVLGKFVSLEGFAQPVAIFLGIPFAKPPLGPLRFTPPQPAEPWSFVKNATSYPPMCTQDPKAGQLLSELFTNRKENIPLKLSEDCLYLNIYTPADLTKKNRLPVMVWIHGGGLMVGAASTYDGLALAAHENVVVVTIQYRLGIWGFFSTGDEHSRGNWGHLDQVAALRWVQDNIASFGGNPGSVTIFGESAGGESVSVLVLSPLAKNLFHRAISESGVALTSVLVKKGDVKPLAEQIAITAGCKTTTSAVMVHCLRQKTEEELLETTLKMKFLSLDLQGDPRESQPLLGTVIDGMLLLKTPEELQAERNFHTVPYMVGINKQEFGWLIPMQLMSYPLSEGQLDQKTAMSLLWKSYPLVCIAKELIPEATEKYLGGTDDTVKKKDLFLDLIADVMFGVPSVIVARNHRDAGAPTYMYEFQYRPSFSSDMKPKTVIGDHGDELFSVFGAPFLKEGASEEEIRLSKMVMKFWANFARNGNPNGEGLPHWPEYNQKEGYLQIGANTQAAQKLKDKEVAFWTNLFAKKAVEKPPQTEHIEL
The series is described as follows: dose response of Amplex Red to resorufin conversion by recombinant Ces1b (fluorescence). It counts as biochemical.

The target in series [2] is T1, Carboxylesterase 1 isoform b (Ces1b). The series is described as follows: biochemical. The following applies: read-out: % inhibition at 100 μM.
For series [3] the target is unchanged. The series is described as follows: inhibition of Amplex Red to resorufin conversion by recombinant Ces1b (fluorescence). It counts as biochemical.
Substrate in the series “purified protein”: CC(=O)N1c2ccc(O)cc2Oc2cc(O)ccc21
The series is described as follows: purified protein. The following applies: docking: carbonyl carbon near Ser221, carbonyl oxygen in oxyanion hole of Gly142 and Gly143.

Usually IC50 stands for the concentration at which inhibition is half-maximal. Consider `O=S(=O)(F)Cc1ccccc1` [PMSF, Phenylmethyl sulfonyl fluoride], for which, in series [1], the IC50 was approximately 5000 nM.
Broadly, the inhibition is how much of the control response was suppressed. In the case of `CN(C)C(=O)C(CCN1CCC(O)(c2ccc(Cl)cc2)CC1)(c1ccccc1)c1ccccc1` [LPM, Loperamide], the inhibition at 100 µM in series [2] was approximately 50%.
Consider `O=[N+]([O-])c1ccc(OP(=O)(O)Oc2ccc([N+](=O)[O-])cc2)cc1` [BNPP, bis(4-nitrophenyl)phosphate], for which, in series [3], the IC50 was approximately 150 nM.

B1: Carboxylesterase 1 isoform b (Ces1b) (Homo sapiens) (protein)
chain: GHPSSPPVVDTVHGKVLGKFVSLEGFAQPVAIFLGIPFAKPPLGPLRFTPPQPAEPWSFVKNATSYPPMCTQDPKAGQLLSELFTNRKENIPLKLSEDCLYLNIYTPADLTKKNRLPVMVWIHGGGLMVGAASTYDGLALAAHENVVVVTIQYRLGIWGFFSTGDEHSRGNWGHLDQVAALRWVQDNIASFGGNPGSVTIFGESAGGESVSVLVLSPLAKNLFHRAISESGVALTSVLVKKGDVKPLAEQIAITAGCKTTTSAVMVHCLRQKTEEELLETTLKMKFLSLDLQGDPRESQPLLGTVIDGMLLLKTPEELQAERNFHTVPYMVGINKQEFGWLIPMQLMSYPLSEGQLDQKTAMSLLWKSYPLVCIAKELIPEATEKYLGGTDDTVKKKDLFLDLIADVMFGVPSVIVARNHRDAGAPTYMYEFQYRPSFSSDMKPKTVIGDHGDELFSVFGAPFLKEGASEEEIRLSKMVMKFWANFARNGNPNGEGLPHWPEYNQKEGYLQIGANTQAAQKLKDKEVAFWTNLFAKKAVEKPPQTEHIEL
Broadly, the Km is the substrate concentration at which the rate is half of its maximum. With B1, the Km in “purified protein” was found to be 55 ± 12 µM.
